Assay results reported in patent publication US9981983B2, “Thienopyranones as kinase inhibitors” (SignalRx Pharmaceuticals, Inc., priority 2008, dated 2018).

Tests used:
Format in all cases: cell-based
Panc-1 (Pancreas) = test: Cell proliferation MTS assay, Panc-1; conditions: Homo sapiens, 72 hours
Experimental: (§1) All cell lines were obtained from ATCC and cultured and plated according to ATCC recommendations. Cells were cultured in complete culture media containing 10% heat-inactivated fetal bovine serum (FBS, Mediatech, Inc.). For adherent cell lines, once cells reached 70% confluency, they were trypsinized and resuspended in phenol red free RPMI media (Mediatech, Inc.) plus 10% heat-inactivated FBS (assay buffer) and 100 μL aliquots were plated into each well of 96-well microtiter plates at a final density of 1,000-2,000 cells/well. Cells were incubated overnight at 37° C. in 5% CO2, and treated with test compounds on the next day. For suspension cell lines, cells were resuspended in assay buffer, plated into 96-well microtiter plates at a density of 10^4-10^5 cells/well/100 μL, and treatment was started on the same day. Cells were treated with vehicle (DMSO) and test compounds for 72 hours at concentration of 100, 70, 40, 20, 10, 5, 2.5, 1.25, 0.5 and 0.2 μM in four replicates at 37° C. in 5% CO2.

MDA-MB468 (Breast) = test: Cell proliferation MTS assay, MDA-MB468; conditions: Homo sapiens, MDA-MB-468, 72 hours
Experimental: as §1

pAKT in 786-O cells = test: pAKT status DM50, 786-O; conditions: Homo sapiens, 786-0, renal cell carcinoma
Experimental: (§2) PC3 cells were obtained from the American Type Culture Collection (ATCC, Manassas, Va., Cat.# CRL-1435). Two million cells from the prostate cancer line PC3 were placed into 6 cm culture dishes and allowed to grow in complete RPMI 1640 media (Invitrogen, Carlsbad, Calif., Cat.#22400-105) with 10% fetal bovine serum (Invitrogen, Carlsbad, Calif., Cat.#10438-026). After this time period the cells were serum starved for 5 hours followed by application of the test compound. Test compound was added as a DMSO (dimethyl sulfoxide) solution such that the final DMSO concentration in the cell media was less than or equal to 0.2% by volume After 30 minutes of exposure the growth factor stimulant, human IGF-1 (PeproTech, Inc., Rocky Hill, N.J., Cat.#100-11), was added to a final concentration of 0.1 μg/ml in each well. After 30 minutes of IGF-1 exposure, cells were removed from the media and cell lysates were prepared using RIPA Lysis buffer (Upstate, Lake Placid, N.Y., Cat.#20-188), keeping on ice. The pAKT serine 473 level was measured in duplicate samples of the cell lysates using commercially available assays such as the Pathscan® Sandwich ELISA kit for Ser473 pAKT (Cell Signaling, Danvers, Mass., Cat.#7160). A SpectraMax Plus spectrophotometric plate reader (Molecular Devices, Sunnydale, Calif.) was used to measure the optical density signal for pAKT at 450 nm (OD450 nm). The pAKT OD450 nm readings were normalized by total protein amount in the cell lysates determined by standard methods.
(§3) Concentrations of test compounds required to inhibit IGF stimulated pAKT levels to 50% of maximum levels in PC3 cells (termed DM50 for decreased maximum 50%) were calculated by inputting the dose responses in the software package GraphPad Prism4 (GraphPad Software, Inc., San Diego, Calif.).
(§4) Several other cancer cell lines were obtained from ATCC and grown according to the supplier's recommendations and treated with test compounds. DM50 values listed in Table 6 below were obtained by the methods described in Example A: […]

[1] = test system: pAKT serine 473 level in PC3 cells; test: pAKT status in IGF-1 stimulated PC3 cells (Ser473 pAKT ELISA); conditions: Homo sapiens, PC-3; IGF-1 stimulated PC3 cells; read-out: PC3 pAKT IC50
Experimental: as §2, §3
By these methods a number of compounds of the invention were evaluated and the concentration needed to reduce the detectable pAKT to 50% of the maximal uninhibited signal was calculated. These values (in μMolar units) are listed in Table 8 under the column heading PC3 pAKT IC50 (μMolar).

[2] = Cell proliferation MTS assay, Hela; conditions: Homo sapiens, 72 hours, read-out: IC50 Hela (Colon)
Experimental: as §1

MCF7 breast cancer cells = test: Mammosphere cancer stem cell inhibition assay; conditions: first experiment; for number of mammospheres: control 38±4
Experimental: A mammosphere cancer stem cell inhibition assay was set up using literature methods (T. M. Phillips et al. J. Natl. Cancer I. 2006, 98, 1777-1785, “Mammalian target of rapamycin contributes to the acquired apoptotic resistance of human mesothelioma multicellular spheroids”) using a subset of MCF7 breast cancer cells that posses the ability to evade anchorage independent apoptosis. Commercially available MCF7 breast cancer cells were cultured in MEM supplemented with 0.01 mg/mL of bovine insulin and 10% FBS at 37° C. in humidified atmosphere (5% CO2). Floating cells in the 2-day cultures were collected, washed, and resuspended in DMEM-F12 (50:50) supplemented with 0.4% BSA, 5 μg/mL bovine insulin, 20 ng/mL bFGF, and 10 ng/mL EGF. Cells were then passed through a […] sieve to remove any cell clusters and adjusted to a density of 10,000 cells/mL. Approximately 500 cells were plated in quadruplicate in a sterile poly-HEMA-treated 96-well plate. Cells were then treated with either control or test solutions consisting of the kinase inhibitor Lapatinib (1 μM), Cpd 28 (1 or 10 μM), Cpd 55 (1 or 10 μM), The numbers of mammospheres (clusters of cells numbering more than 4 or 5 per cluster) were then counted after 5-7 days.

pAKT in BT-474 cells = test: pAKT status DM50, BT-474; conditions: Homo sapiens; BT-474, breast cancer
Experimental: as §2, §3, §4

A549 (Lung) = test: Cell proliferation MTS assay, A549; conditions: Homo sapiens, 72 hours
Experimental: as §1

BXPC3 (Pancreas) = test: Cell proliferation MTS assay, BXPC3; conditions: Homo sapiens, BXPC-3, 72 hours
Experimental: as §1

O=c1cc(N2CCOCC2)oc2c(-c3ccc4c(c3)OCCO4)csc12 [Compound 28, 3-(2,3-dihydrobenzo[b][1,4]dioxin-6-yl)-5-morpholino-7H-thieno[3,2-b]pyran-7-one]
IC50 (Panc-1 (Pancreas)): 18400 nM
IC50 (MDA-MB468 (Breast)): 2710 nM
IC50 (pAKT in 786-O cells): 1370 nM
IC50 [1]: 161 to 440 nM
IC50 [2]: 2100 nM
inhibition of mammosphere production versus control (MCF7 breast cancer cells; 1 μM): approximately 60%
number of mammospheres (MCF7 breast cancer cells; 1 μM): 15±2 mammospheres
inhibition of mammosphere production versus control (MCF7 breast cancer cells; 10 μM): approximately 88%
number of mammospheres (MCF7 breast cancer cells; 10 μM): 5±1 mammospheres
IC50 (pAKT in BT-474 cells): 307 nM
IC50 (A549 (Lung)): 2540 nM
IC50 (BXPC3 (Pancreas)): 3350 nM
